Source: US11884671B2, “Purinone compounds and their use in treating cancer” (ASTRAZENECA AB, priority 2018, dated 2024)

Experiments:
[1] = biological target: JAK3 (Homo sapiens (Human), UniProt P52333); assay: JAK3 enzyme assay (Z'-LYTE); type: biochemical; conditions: 10 μM ATP, arithmetic mean of two or more experiments; for IC50: read-out: JAK3 enz pIC50 (converted)
[2] = biological target: AURKB (Aurora B) (Homo sapiens (Human), UniProt Q96GD4); assay: Aurora-B enzyme assay (Z'-LYTE); type: biochemical; conditions: 75 μM ATP, arithmetic mean of two or more experiments; for IC50: read-out: AurB enz pIC50 (converted)
Sequence of AURKB (Aurora B) (Q96GD4 whole entry): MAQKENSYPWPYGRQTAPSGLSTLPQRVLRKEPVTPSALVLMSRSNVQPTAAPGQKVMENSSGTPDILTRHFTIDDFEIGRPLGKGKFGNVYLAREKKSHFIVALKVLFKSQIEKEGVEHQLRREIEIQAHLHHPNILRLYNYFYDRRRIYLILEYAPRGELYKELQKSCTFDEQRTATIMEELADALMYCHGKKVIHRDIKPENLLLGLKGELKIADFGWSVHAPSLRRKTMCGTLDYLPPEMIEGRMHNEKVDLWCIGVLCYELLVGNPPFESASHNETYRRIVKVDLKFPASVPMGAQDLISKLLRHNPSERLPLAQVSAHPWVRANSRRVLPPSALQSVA

[3] = biological target: AURKA (Aurora A) (Homo sapiens (Human), UniProt O14965); assay: Aurora-A enzyme assay (Z'-LYTE); type: biochemical; conditions: 10 μM ATP, arithmetic mean of two or more experiments; for IC50: read-out: AurA enz pIC50 (converted)
Sequence of AURKA (Aurora A) (O14965 whole entry): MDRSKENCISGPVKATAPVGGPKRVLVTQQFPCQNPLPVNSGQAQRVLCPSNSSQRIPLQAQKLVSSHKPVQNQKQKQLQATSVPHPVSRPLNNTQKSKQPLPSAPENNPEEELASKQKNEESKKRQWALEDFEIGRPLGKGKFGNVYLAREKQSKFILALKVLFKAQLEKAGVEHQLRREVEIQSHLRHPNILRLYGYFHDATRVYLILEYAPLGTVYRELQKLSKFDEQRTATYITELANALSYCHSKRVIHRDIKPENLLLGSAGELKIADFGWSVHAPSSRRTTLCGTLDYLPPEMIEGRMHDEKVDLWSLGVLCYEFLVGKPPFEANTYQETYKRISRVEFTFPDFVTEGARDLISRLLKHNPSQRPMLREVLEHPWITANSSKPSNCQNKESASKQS

[4] = biological target: Full length human DNAPK protein (Homo sapiens (Human), UniProt P78527); assay: DNAPK enzyme potency assay (DNA-PK enz), TR-FRET; type: biochemical; conditions: arithmetic mean of two or more experiments, 18 μM ATP; for IC50: read-out: DNA-PK enz pIC50 (converted)
Description: The following assays were used to measure the effects of the compounds described herein: a) DNAPK enzyme potency assay; b) DNAPK cellular potency assay. During the description of the assays, generally: • i. The following abbreviations have been used; DMSO=Dimethyl Sulphoxide; DTT=Dithiothreitol; EDTA=Ethylenediaminetetraacetic Acid, TR-FRET=Time Resolved Fluorescence Resonance Energy Transfer, ATP=Adenosine triphosphate, DTT=Dithiothreitol, DNA=Deoxyribonucleic acid, HEPES=(2-hydroxyethyl)-1-piperazineethanesulfonic acid • ii. […] Assay a): DNAPK Enzyme Potency Assay (DNA-PK Enz)
The inhibitory activity of compounds against DNAPK was determined by TR-FRET measuring a fluorescent labelled peptide substrate converting to a phosphorylated product. Fluorescently tagged peptide substrate were purchased from Thermo Fisher Scientific. 12 point half-log compound concentration-response curves, with a top concentration of 100 μM were generated from 10 mM stocks of compound solubilised in DMSO using an Echo 555 (Labcyte Inc., Sunnyvale, CA). All assays were preformed in white Greiner 1536 well low volume plates (Greiner Bio-One, UK), in a total reaction volume of 3 μL and 1% (v/v) final DMSO concentration. Enzymes and substrates were added separately to the compound plates and incubated at room temperature. The kinase reaction was then quenched by the addition of 3 μL of stop buffer. Stopped assay plates were read using a BMG Pherastar. IC50 values were calculated using a Genedata Screener® software (Genedata, Inc., Basel, Switzerland).
Full length human DNAPK protein was purified from HeLa cell extract by ion exchange. Initially DNAPK protein was incubated with compound for 30 minutes at room temperature in reaction buffer (50 mM Hepes pH 7.5, 0.01% Brij-35, 10 mM MgCl2, 1 mM EGTA, 1 mM DTT, […] Calf Thymus DNA). The reaction was then initiated by the addition of ATP and fluorescently tagged peptide substrate (Fluorescein-[…], Thermo Fisher Scientific). […] The reaction was incubated for a further hour and the plates were read on a BMG Pherastar.
Data was analysed and IC50 values were calculated using Genedata Screener® software (Genedata, Inc., Basel, Switzerland).

[5] = biological target: TTK (Homo sapiens (Human), UniProt P33981); assay: TTK enzyme assay (LanthaScreen Eu Kinase Binding); conditions: arithmetic mean of two or more experiments; for IC50: read-out: TTK enz pIC50 (converted)
Sequence of TTK (P33981 whole entry): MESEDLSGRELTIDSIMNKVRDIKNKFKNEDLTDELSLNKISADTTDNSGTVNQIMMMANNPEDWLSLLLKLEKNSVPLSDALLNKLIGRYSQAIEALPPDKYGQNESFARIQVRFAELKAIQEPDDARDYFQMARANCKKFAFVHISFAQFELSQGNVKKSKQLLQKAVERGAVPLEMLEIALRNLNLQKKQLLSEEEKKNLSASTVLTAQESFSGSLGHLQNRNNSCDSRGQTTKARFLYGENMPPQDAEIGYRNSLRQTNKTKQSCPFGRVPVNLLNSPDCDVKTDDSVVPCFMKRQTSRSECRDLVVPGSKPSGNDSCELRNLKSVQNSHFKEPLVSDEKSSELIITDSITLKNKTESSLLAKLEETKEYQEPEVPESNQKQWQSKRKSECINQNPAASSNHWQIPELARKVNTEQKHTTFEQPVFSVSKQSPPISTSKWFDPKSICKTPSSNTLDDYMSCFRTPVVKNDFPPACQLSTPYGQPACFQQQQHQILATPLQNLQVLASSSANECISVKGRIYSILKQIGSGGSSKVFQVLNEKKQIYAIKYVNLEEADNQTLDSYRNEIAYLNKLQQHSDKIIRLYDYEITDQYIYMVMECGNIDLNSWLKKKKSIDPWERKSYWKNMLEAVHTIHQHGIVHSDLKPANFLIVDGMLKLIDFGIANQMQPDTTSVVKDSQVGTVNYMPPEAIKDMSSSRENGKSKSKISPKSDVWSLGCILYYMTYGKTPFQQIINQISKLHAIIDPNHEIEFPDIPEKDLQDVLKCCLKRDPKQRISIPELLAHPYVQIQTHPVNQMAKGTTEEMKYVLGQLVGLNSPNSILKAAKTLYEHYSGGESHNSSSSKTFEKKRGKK

Sequence of JAK3 (P52333 whole entry): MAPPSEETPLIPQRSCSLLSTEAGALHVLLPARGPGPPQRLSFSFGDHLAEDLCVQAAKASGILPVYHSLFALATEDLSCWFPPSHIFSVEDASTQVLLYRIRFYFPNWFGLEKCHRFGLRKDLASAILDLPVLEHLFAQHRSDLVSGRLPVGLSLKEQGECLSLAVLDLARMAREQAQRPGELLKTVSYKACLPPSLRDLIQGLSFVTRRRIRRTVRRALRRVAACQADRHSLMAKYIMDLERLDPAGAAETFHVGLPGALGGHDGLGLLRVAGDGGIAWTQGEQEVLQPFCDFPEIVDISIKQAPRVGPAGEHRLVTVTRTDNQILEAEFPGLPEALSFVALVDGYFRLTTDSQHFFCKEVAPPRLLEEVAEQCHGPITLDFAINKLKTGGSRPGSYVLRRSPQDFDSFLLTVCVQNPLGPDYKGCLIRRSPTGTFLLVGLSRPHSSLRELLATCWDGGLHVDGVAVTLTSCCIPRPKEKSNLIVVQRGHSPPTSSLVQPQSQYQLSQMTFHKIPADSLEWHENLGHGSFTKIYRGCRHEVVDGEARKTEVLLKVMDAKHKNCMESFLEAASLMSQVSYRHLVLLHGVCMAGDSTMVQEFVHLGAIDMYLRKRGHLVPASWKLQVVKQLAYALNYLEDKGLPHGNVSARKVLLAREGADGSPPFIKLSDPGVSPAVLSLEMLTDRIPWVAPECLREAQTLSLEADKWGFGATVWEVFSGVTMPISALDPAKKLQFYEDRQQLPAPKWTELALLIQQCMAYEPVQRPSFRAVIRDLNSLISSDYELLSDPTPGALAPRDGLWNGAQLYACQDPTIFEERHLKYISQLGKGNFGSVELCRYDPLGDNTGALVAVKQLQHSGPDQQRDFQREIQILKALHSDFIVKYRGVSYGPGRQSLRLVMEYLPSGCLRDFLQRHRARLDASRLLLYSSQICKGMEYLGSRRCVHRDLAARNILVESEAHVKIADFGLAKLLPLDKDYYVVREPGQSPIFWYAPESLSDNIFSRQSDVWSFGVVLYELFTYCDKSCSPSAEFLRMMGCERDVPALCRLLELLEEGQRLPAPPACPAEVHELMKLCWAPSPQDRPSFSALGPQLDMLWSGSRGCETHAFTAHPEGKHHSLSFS

Row | Compound | IC50 [1] [µM] | IC50 [2] [µM] | IC50 [3] [µM] | IC50 [4] [µM] | IC50 [5] [µM] | JAK3 enz pIC50 [1] | AurB enz pIC50 [2] | AurA enz pIC50 [3] | DNA-PK enz pIC50 [4] | TTK enz pIC50 [5]
1 | Cc1cnc2cc(C)c(Nc3ncc4c(n3)n(C3CCOCC3)c(=O)n4C)cc2n1 [Example 34, 2-((3,7-dimethylquinoxalin-6-yl)amino)-7-methyl-9-(tetrahydro-2H-pyran-4-yl)-7,9-dihydro-8H-purin-8-one] | > 10 | > 10 | > 10 | < 0.0001 | 5.01 |  |  |  |  | 
2 | Cc1cc2ncccc2cc1Nc1ncc2c(n1)n(C1CCS(=O)(=O)CC1)c(=O)n2C [Example 35, 9-(1,1-dioxidotetrahydro-2H-thiopyran-4-yl)-7-methyl-2-((7-methylquinolin-6-yl)amino)-7,9-dihydro-8H-purin-8-one] |  |  |  |  |  | 5.2 | <5 | <5 | >10 | 5.9
3 | Cc1cc2ncccc2cc1Nc1ncc2c(n1)n(C1COC1)c(=O)n2C [Example 36, 7-methyl-2-((7-methylquinolin-6-yl)amino)-9-(oxetan-3-yl)-7,9-dihydro-8H-purin-8-one] |  |  |  |  |  | <5 | <5 | <5 | 9.7 | 6.0
4 | Cc1cc2ncccc2cc1Nc1ncc2c(n1)n([C@@H]1CCNC[C@@H]1F)c(=O)n2C [Example 38, 9-((3S,4R)-3-fluoropiperidin-4-yl)-7-methyl-2-((7-methylquinolin-6-yl)amino)-7,9-dihydro-8H-purin-8-one] |  |  |  |  |  | <5 | <5 | <5 | 8.0 | <5.1
5 | Cc1cc2ncccc2cc1Nc1ncc2c(n1)n([C@H]1CC[C@@](C)(N)CC1)c(=O)n2C [Example 39, 9-((1s,4s)-4-amino-4-methylcyclohexyl)-7-methyl-2-((7-methylquinolin-6-yl)amino)-7,9-dihydro-8H-purin-8-one] | > 10 | > 10 | > 10 | 0.001 | 3.98 |  |  |  |  | 
6 | Cc1cc2ncccc2cc1Nc1ncc2c(n1)n([C@H]1CC[C@](C)(N)CC1)c(=O)n2C [Example 40, 9-((1r,4r)-4-amino-4-methylcyclohexyl)-7-methyl-2-((7-methylquinolin-6-yl)amino)-7,9-dihydro-8H-purin-8-one] | > 7.94 | > 10 | > 10 | 0.000316 | 1.58 |  |  |  |  | 
7 | Cc1cc2ncccc2cc1Nc1ncc2c(n1)n([C@@H]1CCN(C)C[C@@H]1F)c(=O)n2C [Example 46, 9-((3S,4R)-3-fluoro-1-methylpiperidin-4-yl)-7-methyl-2-((7-methylquinolin-6-yl)amino)-7,9-dihydro-8H-purin-8-one] |  |  |  |  |  | <5 | <5 | <5 | 8.1 | 5.4
8 | Cc1cc2ncccc2cc1Nc1ncc2c(n1)n(C1CCN(C3COC3)CC1)c(=O)n2C [Example 47, 7-methyl-2-((7-methylquinolin-6-yl)amino)-9-(1-(oxetan-3-yl)piperidin-4-yl)-7,9-dihydro-8H-purin-8-one] |  |  |  |  |  | <5 | <5 | <5 | 9.0 | 5.8
9 | Cc1cc2ncccc2cc1Nc1ncc2c(n1)n(C1CCN(CCO)CC1)c(=O)n2C [Example 48, 9-(1-(2-hydroxyethyl)piperidin-4-yl)-7-methyl-2-((7-methylquinolin-6-yl)amino)-7,9-dihydro-8H-purin-8-one] |  |  |  |  |  | <5 | <5 | <5 | 9.0 | 5.9
10 | COCCN1CCC(n2c(=O)n(C)c3cnc(Nc4cc5cccnc5cc4C)nc32)CC1 [Example 49, 9-(1-(2-methoxyethyl)piperidin-4-yl)-7-methyl-2-((7-methylquinolin-6-yl)amino)-7,9-dihydro-8H-purin-8-one] |  |  |  |  |  | <5 | <5 | <5 | 8.8 | 5.7
11 | CCN1CCC(n2c(=O)n(C)c3cnc(Nc4cc5cccnc5cc4C)nc32)CC1 [Example 50, 9-(1-ethylpiperidin-4-yl)-7-methyl-2-((7-methylquinolin-6-yl)amino)-7,9-dihydro-8H-purin-8-one] |  |  |  |  |  | <5 | <5 | <5 | 8.4 | 5.2
12 | CC(=O)N1CCC(n2c(=O)n(C)c3cnc(Nc4cc5cccnc5cc4C)nc32)CC1 [Example 51, 9-(1-acetylpiperidin-4-yl)-7-methyl-2-((7-methylquinolin-6-yl)amino)-7,9-dihydro-8H-purin-8-one] |  |  |  |  |  | <5 | <5 | <5 | >10 | 6.4
